The values that follow come from ChEMBL document CHEMBL3991601, “The target landscape of clinical kinase drugs” (Science, 2017).

The structures appear in SMILES notation. The source made the active and inactive calls.

In test [1] the target is Tyrosine-protein kinase Lck (Homo sapiens, UniProt P06239).
The target in test [2] is T1, ATP-dependent RNA helicase DHX30 (Homo sapiens, UniProt Q7L2E3).
T1 sequence (Q7L2E3 whole entry): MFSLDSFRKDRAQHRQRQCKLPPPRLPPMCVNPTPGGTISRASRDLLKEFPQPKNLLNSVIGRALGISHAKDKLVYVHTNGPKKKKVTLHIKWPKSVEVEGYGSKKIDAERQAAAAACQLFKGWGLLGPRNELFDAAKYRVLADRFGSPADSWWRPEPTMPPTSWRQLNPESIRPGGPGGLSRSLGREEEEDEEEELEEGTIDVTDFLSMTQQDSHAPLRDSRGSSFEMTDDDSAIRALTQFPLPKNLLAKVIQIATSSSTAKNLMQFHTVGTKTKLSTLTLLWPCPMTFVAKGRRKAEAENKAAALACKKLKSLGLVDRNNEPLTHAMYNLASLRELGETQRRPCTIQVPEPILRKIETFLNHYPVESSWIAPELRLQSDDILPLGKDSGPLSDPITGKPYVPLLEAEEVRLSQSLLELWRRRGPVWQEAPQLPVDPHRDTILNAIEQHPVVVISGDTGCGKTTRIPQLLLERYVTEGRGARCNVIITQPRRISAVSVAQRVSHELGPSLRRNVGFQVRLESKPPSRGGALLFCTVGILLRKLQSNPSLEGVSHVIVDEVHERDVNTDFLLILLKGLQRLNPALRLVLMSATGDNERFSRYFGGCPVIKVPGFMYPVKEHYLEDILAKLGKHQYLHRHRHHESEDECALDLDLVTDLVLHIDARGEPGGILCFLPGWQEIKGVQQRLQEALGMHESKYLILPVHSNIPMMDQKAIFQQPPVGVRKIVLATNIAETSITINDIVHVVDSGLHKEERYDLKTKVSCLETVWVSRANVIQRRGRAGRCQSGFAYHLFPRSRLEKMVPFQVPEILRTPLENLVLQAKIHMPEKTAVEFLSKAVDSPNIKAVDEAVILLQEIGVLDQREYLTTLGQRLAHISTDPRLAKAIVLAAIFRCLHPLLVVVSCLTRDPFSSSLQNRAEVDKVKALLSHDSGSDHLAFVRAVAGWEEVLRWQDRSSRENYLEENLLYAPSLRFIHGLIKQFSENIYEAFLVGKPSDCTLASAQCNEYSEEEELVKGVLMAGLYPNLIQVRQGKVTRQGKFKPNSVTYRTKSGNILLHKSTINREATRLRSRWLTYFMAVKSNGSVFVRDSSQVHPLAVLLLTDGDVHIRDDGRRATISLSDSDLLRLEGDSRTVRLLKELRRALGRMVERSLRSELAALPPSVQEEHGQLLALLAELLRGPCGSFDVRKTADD

For test [3], the target named is Dual specificity protein kinase CLK2 (Homo sapiens, UniProt P49760).
For test [4], the target named is T2, Eukaryotic translation initiation factor 5B (Homo sapiens, UniProt O60841).
T2 sequence (O60841 whole entry): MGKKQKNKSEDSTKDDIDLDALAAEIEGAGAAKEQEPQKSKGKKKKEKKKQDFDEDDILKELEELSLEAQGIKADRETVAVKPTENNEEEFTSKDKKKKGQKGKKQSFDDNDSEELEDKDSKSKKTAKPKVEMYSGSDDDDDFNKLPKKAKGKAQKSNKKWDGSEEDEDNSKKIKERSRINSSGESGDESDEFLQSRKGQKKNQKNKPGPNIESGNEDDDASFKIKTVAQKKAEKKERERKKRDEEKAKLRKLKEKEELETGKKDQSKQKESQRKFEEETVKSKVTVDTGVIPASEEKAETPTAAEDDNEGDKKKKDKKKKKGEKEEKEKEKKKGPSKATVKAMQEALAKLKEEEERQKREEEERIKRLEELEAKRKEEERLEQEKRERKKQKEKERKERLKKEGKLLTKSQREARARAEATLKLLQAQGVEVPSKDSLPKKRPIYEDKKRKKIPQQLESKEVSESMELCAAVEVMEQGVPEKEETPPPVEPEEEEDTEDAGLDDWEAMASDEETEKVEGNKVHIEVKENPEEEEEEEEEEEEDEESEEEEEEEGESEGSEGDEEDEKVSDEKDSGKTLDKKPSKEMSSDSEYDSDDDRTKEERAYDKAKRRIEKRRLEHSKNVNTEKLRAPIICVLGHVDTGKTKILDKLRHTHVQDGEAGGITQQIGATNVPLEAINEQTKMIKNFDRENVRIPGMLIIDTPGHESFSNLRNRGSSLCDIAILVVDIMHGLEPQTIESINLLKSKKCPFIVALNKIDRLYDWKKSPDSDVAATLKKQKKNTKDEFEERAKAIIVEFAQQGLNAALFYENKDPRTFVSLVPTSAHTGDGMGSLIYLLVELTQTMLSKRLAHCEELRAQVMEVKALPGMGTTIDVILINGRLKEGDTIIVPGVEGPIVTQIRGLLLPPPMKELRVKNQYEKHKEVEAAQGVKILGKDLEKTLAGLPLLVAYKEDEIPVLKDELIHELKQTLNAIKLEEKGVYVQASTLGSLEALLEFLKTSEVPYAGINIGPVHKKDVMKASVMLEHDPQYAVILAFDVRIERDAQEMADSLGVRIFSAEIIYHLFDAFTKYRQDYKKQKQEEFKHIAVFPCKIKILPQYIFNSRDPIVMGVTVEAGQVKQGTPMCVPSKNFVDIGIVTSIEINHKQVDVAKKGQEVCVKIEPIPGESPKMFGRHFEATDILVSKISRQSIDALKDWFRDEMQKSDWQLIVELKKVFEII

Test [5] addresses Hepatocyte growth factor receptor (Homo sapiens, UniProt P08581).
The target of test [6] is Uncharacterized aarF domain-containing protein kinase 5 (Homo sapiens, UniProt Q3MIX3).
In test [7] the target is Rho-associated protein kinase 1 (Homo sapiens, UniProt Q13464).
The target of test [8] is Dual specificity testis-specific protein kinase 2 (Homo sapiens, UniProt Q96S53).
The target in test [9] is G protein-coupled receptor kinase 6 (Homo sapiens, UniProt P43250).
A further test has as its target Myosin-10 (Homo sapiens, UniProt P35580).
Further: in the data inactive means no Kd found up to 30 µM.

Rho-associated protein kinase 1, sequence (Q13464 whole entry): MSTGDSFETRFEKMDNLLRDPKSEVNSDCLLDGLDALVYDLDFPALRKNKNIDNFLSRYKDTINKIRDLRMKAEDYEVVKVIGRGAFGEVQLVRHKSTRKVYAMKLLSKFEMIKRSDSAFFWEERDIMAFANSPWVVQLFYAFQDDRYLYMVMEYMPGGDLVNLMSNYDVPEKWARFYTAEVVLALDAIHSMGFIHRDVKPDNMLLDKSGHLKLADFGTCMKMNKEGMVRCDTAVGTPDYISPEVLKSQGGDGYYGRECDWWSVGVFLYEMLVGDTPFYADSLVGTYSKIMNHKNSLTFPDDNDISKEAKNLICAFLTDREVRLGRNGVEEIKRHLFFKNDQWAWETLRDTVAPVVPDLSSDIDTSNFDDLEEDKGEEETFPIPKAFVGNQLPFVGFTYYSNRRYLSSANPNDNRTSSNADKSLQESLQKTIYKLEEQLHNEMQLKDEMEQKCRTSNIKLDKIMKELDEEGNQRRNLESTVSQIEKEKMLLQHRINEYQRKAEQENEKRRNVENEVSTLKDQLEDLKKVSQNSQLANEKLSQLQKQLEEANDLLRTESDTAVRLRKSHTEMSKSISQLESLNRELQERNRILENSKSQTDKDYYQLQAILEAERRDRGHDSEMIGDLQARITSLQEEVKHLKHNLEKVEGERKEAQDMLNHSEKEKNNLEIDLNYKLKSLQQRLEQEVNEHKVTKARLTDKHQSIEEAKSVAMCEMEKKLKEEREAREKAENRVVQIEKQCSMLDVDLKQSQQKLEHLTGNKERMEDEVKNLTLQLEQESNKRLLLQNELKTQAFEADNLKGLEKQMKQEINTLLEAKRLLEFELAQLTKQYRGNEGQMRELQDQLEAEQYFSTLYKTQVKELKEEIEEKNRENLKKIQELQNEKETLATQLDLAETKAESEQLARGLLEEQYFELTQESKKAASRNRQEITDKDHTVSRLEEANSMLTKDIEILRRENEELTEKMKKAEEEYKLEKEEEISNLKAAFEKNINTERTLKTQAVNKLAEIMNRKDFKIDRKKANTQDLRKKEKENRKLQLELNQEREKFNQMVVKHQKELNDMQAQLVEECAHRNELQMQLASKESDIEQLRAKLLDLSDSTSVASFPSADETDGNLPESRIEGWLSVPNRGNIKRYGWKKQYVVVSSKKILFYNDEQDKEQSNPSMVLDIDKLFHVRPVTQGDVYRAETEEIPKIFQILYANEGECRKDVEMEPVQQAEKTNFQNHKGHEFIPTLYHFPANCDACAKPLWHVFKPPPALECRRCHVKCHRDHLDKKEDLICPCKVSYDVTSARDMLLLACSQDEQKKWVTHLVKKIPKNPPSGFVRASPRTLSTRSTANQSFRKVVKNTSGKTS
Myosin-10, sequence (P35580 whole entry): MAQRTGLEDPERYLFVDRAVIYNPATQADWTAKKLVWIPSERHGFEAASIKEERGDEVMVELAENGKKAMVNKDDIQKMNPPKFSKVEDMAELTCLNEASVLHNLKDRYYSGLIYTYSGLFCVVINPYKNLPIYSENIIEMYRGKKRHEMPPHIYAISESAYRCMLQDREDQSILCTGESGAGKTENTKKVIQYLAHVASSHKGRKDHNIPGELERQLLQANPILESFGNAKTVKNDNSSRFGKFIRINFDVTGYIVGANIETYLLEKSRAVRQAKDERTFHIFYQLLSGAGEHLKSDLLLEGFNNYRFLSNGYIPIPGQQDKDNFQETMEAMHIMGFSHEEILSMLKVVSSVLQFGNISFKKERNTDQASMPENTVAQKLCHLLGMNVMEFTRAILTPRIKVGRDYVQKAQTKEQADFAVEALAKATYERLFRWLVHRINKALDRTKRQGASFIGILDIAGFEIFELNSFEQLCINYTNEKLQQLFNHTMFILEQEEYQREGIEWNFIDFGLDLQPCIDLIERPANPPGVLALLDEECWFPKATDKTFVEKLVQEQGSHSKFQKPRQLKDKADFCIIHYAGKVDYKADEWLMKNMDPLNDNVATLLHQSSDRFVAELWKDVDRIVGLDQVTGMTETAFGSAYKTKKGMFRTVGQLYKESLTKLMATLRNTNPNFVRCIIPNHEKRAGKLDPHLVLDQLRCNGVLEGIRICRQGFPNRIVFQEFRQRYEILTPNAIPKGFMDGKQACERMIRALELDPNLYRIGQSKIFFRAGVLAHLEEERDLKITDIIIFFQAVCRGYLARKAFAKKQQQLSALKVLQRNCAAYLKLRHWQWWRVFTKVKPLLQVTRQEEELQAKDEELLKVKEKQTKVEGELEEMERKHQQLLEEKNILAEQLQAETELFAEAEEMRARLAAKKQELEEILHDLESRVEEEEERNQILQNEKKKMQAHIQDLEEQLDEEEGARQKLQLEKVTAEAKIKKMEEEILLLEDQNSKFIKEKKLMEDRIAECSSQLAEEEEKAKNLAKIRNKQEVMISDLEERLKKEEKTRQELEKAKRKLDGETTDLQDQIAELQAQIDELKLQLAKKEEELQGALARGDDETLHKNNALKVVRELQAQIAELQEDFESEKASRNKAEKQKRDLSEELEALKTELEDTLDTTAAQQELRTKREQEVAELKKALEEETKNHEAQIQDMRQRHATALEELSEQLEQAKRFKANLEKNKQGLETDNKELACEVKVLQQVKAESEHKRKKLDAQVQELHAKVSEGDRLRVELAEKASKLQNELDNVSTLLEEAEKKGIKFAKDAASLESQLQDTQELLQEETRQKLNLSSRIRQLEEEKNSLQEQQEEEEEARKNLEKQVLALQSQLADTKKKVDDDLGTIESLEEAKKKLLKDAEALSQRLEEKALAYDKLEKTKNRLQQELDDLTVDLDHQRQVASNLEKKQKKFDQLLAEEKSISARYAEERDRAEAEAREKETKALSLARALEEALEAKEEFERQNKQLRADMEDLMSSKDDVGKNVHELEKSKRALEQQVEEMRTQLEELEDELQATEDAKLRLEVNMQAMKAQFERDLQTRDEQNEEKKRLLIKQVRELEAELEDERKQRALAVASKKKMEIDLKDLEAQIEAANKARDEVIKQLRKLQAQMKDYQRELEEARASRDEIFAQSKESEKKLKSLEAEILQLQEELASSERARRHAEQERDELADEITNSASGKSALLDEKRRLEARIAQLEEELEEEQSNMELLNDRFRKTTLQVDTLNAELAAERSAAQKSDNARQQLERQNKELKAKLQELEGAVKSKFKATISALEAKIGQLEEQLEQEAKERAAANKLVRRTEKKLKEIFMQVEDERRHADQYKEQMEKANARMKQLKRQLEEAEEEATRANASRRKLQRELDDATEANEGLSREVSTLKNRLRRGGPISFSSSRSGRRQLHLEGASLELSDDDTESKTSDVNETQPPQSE
Dual specificity testis-specific protein kinase 2, sequence (Q96S53 whole entry): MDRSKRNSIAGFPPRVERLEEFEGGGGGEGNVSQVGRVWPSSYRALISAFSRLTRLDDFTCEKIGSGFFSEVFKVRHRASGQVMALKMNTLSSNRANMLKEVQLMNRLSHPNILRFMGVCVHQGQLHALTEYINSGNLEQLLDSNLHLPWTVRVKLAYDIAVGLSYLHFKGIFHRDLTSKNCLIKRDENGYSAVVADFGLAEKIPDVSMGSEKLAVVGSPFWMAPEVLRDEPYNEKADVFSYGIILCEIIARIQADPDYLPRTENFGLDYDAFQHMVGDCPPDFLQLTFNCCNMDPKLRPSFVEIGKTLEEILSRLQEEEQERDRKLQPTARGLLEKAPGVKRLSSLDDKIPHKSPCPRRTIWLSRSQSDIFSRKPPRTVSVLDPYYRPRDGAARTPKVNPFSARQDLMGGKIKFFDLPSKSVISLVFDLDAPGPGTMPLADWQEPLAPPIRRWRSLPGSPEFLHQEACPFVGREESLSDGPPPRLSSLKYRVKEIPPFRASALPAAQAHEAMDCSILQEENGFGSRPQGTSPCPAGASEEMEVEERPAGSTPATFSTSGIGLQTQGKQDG
Uncharacterized aarF domain-containing protein kinase 5, sequence (Q3MIX3 whole entry, the tested form may be a part): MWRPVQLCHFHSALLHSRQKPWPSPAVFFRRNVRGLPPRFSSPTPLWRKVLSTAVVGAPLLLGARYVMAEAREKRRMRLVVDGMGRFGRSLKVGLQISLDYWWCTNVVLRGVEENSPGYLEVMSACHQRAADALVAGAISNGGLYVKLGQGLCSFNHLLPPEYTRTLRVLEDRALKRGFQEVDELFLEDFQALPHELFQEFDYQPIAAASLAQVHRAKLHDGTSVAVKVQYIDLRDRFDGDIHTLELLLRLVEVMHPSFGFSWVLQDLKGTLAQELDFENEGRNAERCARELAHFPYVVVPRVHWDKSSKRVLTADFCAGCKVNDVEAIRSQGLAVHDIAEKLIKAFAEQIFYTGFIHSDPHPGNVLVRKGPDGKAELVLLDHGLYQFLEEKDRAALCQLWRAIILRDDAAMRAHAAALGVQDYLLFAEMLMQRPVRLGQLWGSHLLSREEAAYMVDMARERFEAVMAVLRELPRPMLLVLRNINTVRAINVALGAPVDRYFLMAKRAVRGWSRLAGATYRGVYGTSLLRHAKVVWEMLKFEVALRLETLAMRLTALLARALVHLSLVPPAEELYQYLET
Tyrosine-protein kinase Lck, sequence (P06239 whole entry): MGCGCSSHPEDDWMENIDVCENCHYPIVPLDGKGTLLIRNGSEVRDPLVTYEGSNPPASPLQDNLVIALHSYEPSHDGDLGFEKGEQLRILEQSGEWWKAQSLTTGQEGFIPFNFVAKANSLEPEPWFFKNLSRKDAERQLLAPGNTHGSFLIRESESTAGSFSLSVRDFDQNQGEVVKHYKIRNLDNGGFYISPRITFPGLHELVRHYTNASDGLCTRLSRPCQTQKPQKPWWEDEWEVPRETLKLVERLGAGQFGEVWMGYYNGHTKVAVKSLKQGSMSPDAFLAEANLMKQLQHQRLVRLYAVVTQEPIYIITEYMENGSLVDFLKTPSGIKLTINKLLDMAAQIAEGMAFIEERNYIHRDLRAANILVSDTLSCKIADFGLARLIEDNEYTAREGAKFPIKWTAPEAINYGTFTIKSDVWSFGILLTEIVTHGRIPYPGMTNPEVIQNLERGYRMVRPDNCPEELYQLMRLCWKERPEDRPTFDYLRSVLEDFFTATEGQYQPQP

In the case of `O[C@H]1CC[C@H](Nc2ncc3nc(Nc4c(F)cc(F)cc4F)n([C@H]4CCOC4)c3n2)CC1` [TANZISERTIB], the Kd in test [1], in test [2], in [3], in test [4], in test [5] and in [6] was > 30 µM (inactive) in each case. In addition, the Kd in test [7] is > 30 µM (inactive).
`c1cc(OCCN2CCCCC2)cc(-c2n[nH]c3ccc(-c4nc[nH]n4)cc23)c1` [CC-401]: the Kd in test [1], in test [8], in [2], in [9], in test [3] and in test [5] was > 30 µM (inactive) in each case. The Kd in test [6] was > 30 µM (inactive).
For the compound `CNC(=O)c1ccc(Nc2ncc(C(F)(F)F)c(NCc3nccnc3N(C)S(C)(=O)=O)n2)cc1` [DEFACTINIB], the Kd in [1], in test [8], in [2], in test [9], in test [3] and in [5] was > 30 µM (inactive) in each case. The Kd in test [6] and in [7] was > 30 µM (inactive) each time.
As to `CN1CCN(c2nc(C3=C(c4c[nH]c5ccccc45)C(=O)NC3=O)c3ccccc3n2)CC1` [SOTRASTAURIN], the Kd in test [1] was > 30 µM (inactive); in [9] it was > 30 µM (inactive); in [3], 0.121 µM; in [4], > 30 µM (inactive); in [5], > 30 µM (inactive); in test [6], > 30 µM (inactive). The Kd in test [7] is > 30 µM (inactive).
Take `Cc1cc(C(=O)Nc2cc(Oc3ccc4nc(NC(=O)C5CC5)cn4n3)ccc2C)n(C)n1` [TAK-593]: the Kd in test [1], in test [8], in [2], in test [9], in test [3] and in [5] was > 30 µM (inactive) throughout. For the same compound, the Kd in test [6] and in [7] was > 30 µM (inactive) in each case.
On to `COc1cc2ncnc3c2cc1OCCCCCN(C)Cc1ccc(Br)cc1N3` [JNJ-26483327], for which the Kd in test [1], in test [8], in test [2], in test [3], in test [4] and in [5] was > 30 µM (inactive) in each case. The Kd in [6] and in test [7] was > 30 µM (inactive) each time.
On to `C=CC(=O)Nc1cccc(Nc2nc(Nc3ccc(N4CCN(C(C)=O)CC4)cc3OC)ncc2C(F)(F)F)c1` [ROCILETINIB], for which the Kd (in [1]; in test [3]; at Myosin-10; in test [4]; in test [6]; in test [7]) was > 30 µM (inactive) throughout.
For `Cc1cc(-c2cc(OC(=O)c3ccccc3)ccc2Cl)cc2nnc(Nc3ccc(OCCN4CCCC4)cc3)nc12` [TG100-801], the Kd in test [1] was 1.47 µM (active); in test [8] it was > 30 µM (inactive); in test [2] it was > 30 µM (inactive); in test [3], > 30 µM (inactive); at Myosin-10 it was > 30 µM (inactive); in test [5], > 30 µM (inactive). Also, the Kd in test [6] and in [7] was > 30 µM (inactive) each time.
Turning to `O=C(NOC[C@H](O)CO)c1ccc(F)c(F)c1Nc1ccc(I)cc1F` [MIRDAMETINIB], the Kd (in test [1]; in test [2]; in [9]; in test [3]; on Myosin-10; in test [4]) was > 30 µM (inactive) each time. For the same compound, the Kd in test [5], in test [6] and in test [7] was > 30 µM (inactive) in each case.

In general, Kd refers to the concentration at which binding is half-saturated.
